Laboratory results published in US20080242669A1, “METHODS RELATING TO THE TREATMENT OF FIBROTIC DISORDERS” (UNIVERSITY OF WASHINGTON, priority 2005, published 2008).

Tests used:
[1] = tested on: TCF/β-Catenin driven β-Galactosidase expression; assay: TCF/β-catenin driven β-galactosidase reporter in lungs of bleomycin-treated Bat-Gal transgenic mice (X-Gal staining); format: in vivo, mouse; settings: intratracheal bleomycin, 5 mg/Kg/day via minipump (subcutaneously)
Experimental: Using this murine model of pulmonary fibrosis in transgenic Bat-Gal mice, ICG-001 (5 mg/Kg/day, administered via minipump) blocked >95% of bleomycin-induced TCF/O-catenin transcription.
These mice have a Beta-Galactosidase transgene driven by a TCF/Catenin driven promoter (i.e. a read out for activated Wnt/catenin signaling). The mice were given intratracheal saline or bleomycin and either treated with ICG-001 (5 mgs/Kg/day subcutaneously) or saline as vehicle control. The mice were sacrificed and the lungs sectioned and stained with X-Gal (blue color) A) intratracheal bleo+saline. B) intracheal bleo+ICG-001 C) saline+saline.
The dose was selected because ICG-001 reduces TCF/β-Catenin driven β-Galactosidase expression >95% at 5 mgs/Kg/day.

[2] = tested on: bleomycin induced fibrosis; assay: Bleomycin induced murine pulmonary fibrosis model (lung sections stained for collagen, body weight, survival); format: in vivo, mouse
Experimental: Murine models of bleomycin induced fibrosis have been developed in order to study fibrotic disease progression.
There is an absence of airway epithelium in lower left compared to upper left (see arrow heads) and extensive collagen deposition (lower left). On the sixth day, either saline (upper right) or ICG-001 (5 mgs/Kg/day) was administered for 10 days after which the mice were sacrificed and sectioned. Of interest is the upper right (saline treatment) showing lack of normal airway epithelialization, extensive collagen deposition and intra-airway hypercellularity (fibroblasts and inflammatory influx).
FIGS. 16 and 17 show RT-PCR data for S100A4 (FIG. 16) and collagen1A2 (FIG. 17), which are increased in the bleomycin treated mice (treated with saline control).
The procedures were performed using the animal model as described in Example 2 (FIG. 15), and the sectioned lungs were stained for collagen.

S100A4 (FSP-1) = assay: Western blot for S100A4 on whole cell lysates of IPF patient fibroblasts; format: cell-based, human; settings: IPF patient fibroblasts / ATCC IPF cells, RPMI1640+10% FBS, 2 days
Experimental: (§1) Western blots for S100A4 (also know as FSP-1 or fibroblast specific protein-1) and E-Cadherin were performed on whole cell lysates (FIG. 20).

E-Cadherin = assay: Western blot for E-Cadherin on whole cell lysates of IPF patient fibroblasts; format: cell-based, human; settings: RPMI1640+10% FBS, 2 days
Experimental: as §1

Aquaporin 5 = Aquaporin 5 immunostaining of lung tissue in bleomycin mouse model; format: in vivo; settings: bleomycin and ICG-001 vs bleomycin alone
Experimental: The aquaporins are water channels expressed in a variety of cell types. Aquaporin 5 is involved in the transportation of water across the apical surface of the alveolar epithelium and the epithelia of the submucosal glands in the upper airway and nasopharynx. (Krane, C. M., P.N.A.S. 98:14192-4, 2001; Yang, F. J. Biol. Chem. 278:32173-80, 2003). Because aquaporin 5 is a marker of Type 1 (differentiated) lung epithelium, its expression was assayed in lung tissue treated with bleomycin (FIG. 22A), bleomycin and ICG-001 (FIG. 22B), and saline (FIG. 22C), using the animal model as described in Example 2 (FIG. 15), and immunostaining with an antibody specific for Aquaporin 5.

[3] = C57/B16 mice, bleomycin 5 days, then 5 mgs/Kg/day for 10 days
[4] = bleomycin and ICG-001 vs bleomycin
[5] = bleomycin model, 5 mg/Kg/day via minipump

O=C1[C@H](Cc2ccc(O)cc2)N2C(=O)CCN(C(=O)NCc3ccccc3)[C@H]2CN1Cc1cccc2ccccc12 [ICG-001]
block of bleomycin-induced TCF/β-catenin transcription (β-Galactosidase expression) [1]: > 95%
airway appearance in trichrome stained lung sections [2, 3]: essential normal
body weight [2, 3]: regained normal body weight
collagen levels in trichrome stained lung sections [2, 3]: normal collagen levels
survival ([2]; C57/B16 mice, bleomycin 5 days, then 5 mgs/Kg/day for 10 days, untreated controls did not survive): survived
alveolar fibrosis (lungs stained for collagen) [2, 4]: prevented
interstitial fibrosis (lungs stained for collagen) [2, 4]: prevented
disease progression, as judged by mortality, histopathology and endogenous gene expression [2, 5]: not only halted but reversed
mortality [2, 5]: reduced
fibrosis over the 25 days of treatment ([2]; bleomycin model, 25 days of treatment): reversed fibrosis
S100A4 expression (Western blot) (S100A4 (FSP-1)): decreased
E-cadherin expression (Western blot; also mRNA level) (E-Cadherin): increased
aquaporin 5 expression in lung tissue (immunostaining) (Aquaporin 5): greatly increased
